Here are results for one compound from US20190030048A1, “CASEIN MICELLES FOR NANOENCAPSULATION OF HYDROPHOBIC COMPOUNDS” (TECHNION RESEARCH AND DEVELOPMENT FOUNDATION LTD., priority 2006, published 2019).

The nature of data set [1]: Analytical fractionation (centrifugation) and RP-HPLC determination of vitamin D2 content in micelle pellet and serum. It is filed as physicochemical. The settings on record: for recovered vitamin D2 found incorporated into the micelles (encapsulation efficiency): D2-rCM suspension. As for the experimental part: Micelle preparations were centrifuged at 20° C. and 25,000×g for one hour and the supernatant was separated from the pellet by decantation. The supernatant was then ultra-filtered using Amicon 8050 stirred ultrafiltration cell with a 10,000 Da nominal molecular weight limit membrane (Millipore). All fractions were collected and analyzed for vitamin D2 content.
Each sample was then poured into a separatory funnel. […] After gentle mixing the phases were allowed to separate.

Several values for one entry are separate records, joined by “and”; a condition that tells them apart may be missing. Equal values may be shown once. Read-outs that look alike come from different tables or passages of the source.

For the compound `C=C1CC[C@H](O)C/C1=C/C=C1\CCC[C@]2(C)[C@@H]([C@H](C)/C=C/[C@H](C)C(C)C)CC[C@@H]12` [vitamin D2, Vitamin D2], under “0 h”, the “Percent of vitamin D2 remaining, micelle pellet” value was found to be 100%. Also, the “Percent of vitamin D2 remaining, UV exposed serum (control II)” value by setting is: (serum, 0 h) 100%; (serum, 3 h) 0.11%. Moreover, the “Percent of vitamin D2 remaining, serum” value (serum, 0 h) was 100%. The “vitamin concentration in the micelle pellet compared to the supernatant (serum)” value in data set [1] (CM prepared by ultra-high pressure homogenization) is 4-5 times. In data set [1] (CM prepared by ultra-high pressure homogenization, pellet), the “vitamin content of pellet” value is recorded as 30.3±0.4 micrograms/mL. Also, the “vitamin content of supernatant” value in data set [1] (CM prepared by ultra-high pressure homogenization, supernatant) is recorded as 6.7±0.7 micrograms/mL. For the same compound, the results for the “recovered vitamin D2 found incorporated into the micelles (encapsulation efficiency)” value in data set [1] (more typically) and in data set [1] (overall range) were 45-60% and 25-75%, respectively. The “vitamin D2 concentration in the rCM” value in data set [1] (D2-rCM, micelle pellet) fell in the range of 44 to 57 µg/mL. The “vitamin D2 concentration in serum” value in data set [1] (D2-rCM, serum) lay within 2 to 8 µg/mL. In addition, the “vitamin D2 concentration in the rCM relative to its concentration in serum” value in data set [1] (D2-rCM, more typically) was 4-10 times and 5-10 times.
